Assay results as given in US20260226084A1, “DUAL RAF AND TUBULIN INHIBITORS AND METHODS OF USE THEREOF” (Deciphera Pharmaceuticals, LLC, priority 2023, published 2026).
Like-named read-outs stand apart in the source and are kept apart here.

Key:
HCT-116 cells = assay: HCT-116 Cell Proliferation Assay; assay type: cell-based
Procedure, shortened: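 HCT-116 cells, 375/well in McCoy's 5A with 10% FBS, exposed to serial compound dilutions in triplicate for 67 to 72 hours at 37 °C. Viability read by resazurin fluorescence (ex 540/em 600 nm) after a further 4 to 5 h; IC50 values calculated.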

MiaPaca-2 cells = assay: MiaPaca-2 Cell Proliferation Assay; assay type: cell-based
Procedure, shortened: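 Viability was read as resazurin fluorescence (540 nm excitation, 600 nm emission) after 5–6 h with dye. Compounds were tested as serial dilutions in triplicate, with IC50 derived from the dose–response.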

Porcine Brain Tubulin = molecular target: T1, Porcine Brain Tubulin (Sus scrofa, UniProt P02550+P02554); assay: Biochemical Tubulin Polymerization Assay
T1 construct: Porcine Brain Tubulin (T240); purchased Cytoskeleton, Inc T240; BK011P; host or cells: porcine brain (tissue-purified)
T1 sequence (P02550 whole entry): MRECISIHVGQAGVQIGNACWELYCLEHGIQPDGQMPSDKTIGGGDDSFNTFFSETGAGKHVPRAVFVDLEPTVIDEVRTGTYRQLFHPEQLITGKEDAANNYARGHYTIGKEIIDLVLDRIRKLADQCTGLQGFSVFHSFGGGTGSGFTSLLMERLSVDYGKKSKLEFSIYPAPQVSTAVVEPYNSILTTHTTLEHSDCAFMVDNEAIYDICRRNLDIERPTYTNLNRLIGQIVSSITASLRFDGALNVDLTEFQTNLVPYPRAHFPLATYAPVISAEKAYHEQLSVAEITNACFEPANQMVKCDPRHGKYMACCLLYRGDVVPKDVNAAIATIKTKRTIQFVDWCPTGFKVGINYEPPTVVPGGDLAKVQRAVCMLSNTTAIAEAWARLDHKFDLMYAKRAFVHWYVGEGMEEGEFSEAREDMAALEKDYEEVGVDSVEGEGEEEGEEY
T1 sequence (P02554 whole entry): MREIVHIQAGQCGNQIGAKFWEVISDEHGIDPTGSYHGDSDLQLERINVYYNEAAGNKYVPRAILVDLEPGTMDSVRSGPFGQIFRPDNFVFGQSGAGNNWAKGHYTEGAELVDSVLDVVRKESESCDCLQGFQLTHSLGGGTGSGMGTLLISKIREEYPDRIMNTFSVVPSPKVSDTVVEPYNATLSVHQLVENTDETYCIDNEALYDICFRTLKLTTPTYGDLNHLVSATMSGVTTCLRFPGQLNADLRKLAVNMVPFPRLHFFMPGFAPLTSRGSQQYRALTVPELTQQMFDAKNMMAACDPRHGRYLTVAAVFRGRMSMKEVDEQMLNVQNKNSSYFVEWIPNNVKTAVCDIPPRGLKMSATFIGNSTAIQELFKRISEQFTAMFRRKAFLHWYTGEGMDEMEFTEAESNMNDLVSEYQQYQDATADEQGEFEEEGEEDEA

HPAF-II cells = assay: HPAF-II Cell Proliferation Assay; assay type: cell-based
Procedure, shortened: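 HPAF-II cells (750/well) in complete MEM with 10% FBS were exposed to serially diluted compound in triplicate for 115–120 h at 37 °C, 5% CO2. Resazurin was then added for 18–24 h more; fluorescence (ex 540/em 600 nm) gave IC50.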

[1] = molecular target: T2, C-Raf kinase (SEQ ID NO: 2) (Homo sapiens, UniProt P04049, Y340D/Y341D); assay: Biochemical Assay for C-Raf (coupled pyruvate kinase/lactate dehydrogenase assay)
T2 construct: C-Raf residues 306-end; Y340D, Y341D with; GST (N); purchased Sigma
T2 sequence (P04049 307-648 Y340D/Y341D): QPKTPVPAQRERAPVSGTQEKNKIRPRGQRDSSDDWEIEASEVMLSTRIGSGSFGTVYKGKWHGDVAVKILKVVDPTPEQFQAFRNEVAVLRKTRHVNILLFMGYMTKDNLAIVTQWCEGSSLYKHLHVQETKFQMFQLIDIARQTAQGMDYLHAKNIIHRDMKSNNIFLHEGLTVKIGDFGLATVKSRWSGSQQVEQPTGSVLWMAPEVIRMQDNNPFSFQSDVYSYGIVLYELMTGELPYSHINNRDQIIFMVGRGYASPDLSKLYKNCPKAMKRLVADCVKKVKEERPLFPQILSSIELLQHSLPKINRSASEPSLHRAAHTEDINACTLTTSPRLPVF

[2] = molecular target: T3, B-Raf kinase (SEQ ID NO: 1) (Homo sapiens, UniProt P15056); assay: Biochemical Assay for B-Raf (coupled pyruvate kinase/lactate dehydrogenase assay)
T3 construct: GST (N); purchased Sigma
T3 sequence (P15056 416-766): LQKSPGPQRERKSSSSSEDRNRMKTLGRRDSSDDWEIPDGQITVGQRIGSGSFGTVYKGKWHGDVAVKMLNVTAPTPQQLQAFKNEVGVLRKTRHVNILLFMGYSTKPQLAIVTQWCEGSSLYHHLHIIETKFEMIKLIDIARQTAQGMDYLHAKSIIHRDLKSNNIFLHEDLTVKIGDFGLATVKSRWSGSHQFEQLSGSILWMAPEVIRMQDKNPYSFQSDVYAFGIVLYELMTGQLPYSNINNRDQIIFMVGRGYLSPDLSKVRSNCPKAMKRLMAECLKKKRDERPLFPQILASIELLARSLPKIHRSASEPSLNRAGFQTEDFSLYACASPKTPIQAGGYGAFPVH

Pa16c cells = assay: Pa16c Cell Proliferation Assay; assay type: cell-based; details: Table 2, read-out: Inhibition of cell proliferation in Pa16c (IC50 class)
Procedure, shortened: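 Mouse Pa16c cells, 750/well in DMEM with 10% FBS, exposed to serially diluted compound in triplicate for 67 to 72 h at 37° C. Viability read by resazurin reduction over a further 18 to 24 h (ex 540/em 600 nm). IC50 calculated from the dose-response.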

[3] = Homo sapiens, HCT-116, Table 4, HCT-116 mutant KRAS colorectal cancer cell line, read-out: HCT-116 IC50
[4] = Homo sapiens, MIA PaCa-2, Table 4, MiaPaca-2 mutant KRAS pancreatic cancer cell line, read-out: MiaPaca-2 IC50
[5] = Table 4, representative compounds from PCT/US2022/081242, read-out: Tubulin Biochem IC50
[6] = Homo sapiens, HPAF-II, Table 4, HPAF-II mutant KRAS pancreatic cancer cell line, read-out: HPAF-II IC50
[7] = Table 4, representative compounds from PCT/US2022/081242, read-out: CRAF IC50
[8] = Table 4, representative compounds from PCT/US2022/081242, read-out: BRAF IC50
[9] = Homo sapiens, HCT-116, HCT-116 cells, Table 2, read-out: Inhibition of cell proliferation in HCT-116 (IC50 class)
[10] = Homo sapiens, HCT-116, Table 3, read-out: HCT-116 (IC50 class)
[11] = Homo sapiens, MIA PaCa-2, MiaPaca-2 cells, Table 2, read-out: Inhibition of cell proliferation in MiaPaca-2 (IC50 class)
[12] = Homo sapiens, MIA PaCa-2, Table 3, read-out: MiaPaca-2 (IC50 class)
[13] = Table 3, Tubulin Biochemical assay, read-out: Tubulin Biochem (IC50 class)
[14] = Homo sapiens, HPAF-II, HPAF-II cells, Table 2, read-out: Inhibition of cell proliferation in HPAF-II (IC50 class)
[15] = Homo sapiens, HPAF-II, Table 3, read-out: HPAF-II (IC50 class)
[16] = 1 mM ATP, read-out: CRAF (inhibition of biochemical activity, IC50)
[17] = Table 3, read-out: CRAF (IC50 class)
[18] = 1 mM ATP, read-out: BRAF (inhibition of biochemical activity, IC50)
[19] = Table 3, read-out: BRAF (IC50 class)

Compound | IC50 (HCT-116 cells; [9]) | IC50 (Pa16c cells) | IC50 (MiaPaca-2 cells; [11]) | IC50 (HPAF-II cells; [14]) | IC50 [1, 16] | IC50 [2, 18] | other results
Cc1ccc(NC(=O)c2ccnc(C3CC3)c2)cc1-c1ccnc(-c2ccnc(NC(=O)C3CC3)c2)c1 [reference compound] | – | – | – | – | – | – | IC50 (HCT-116 cells; [3]): 500 to 1000 nM; IC50 (MiaPaca-2 cells; [4]): 1000 to 10000 nM; IC50 (Porcine Brain Tubulin; [5]): > 100000 nM; IC50 (HPAF-II cells; [6]): 1000 to 10000 nM; IC50 [1, 7]: < 100 nM; IC50 [2, 8]: < 100 nM
Cc1ccc(NC(=O)c2cc(C(C)(C)F)cnn2)cc1-c1ccnc(-c2ccnc(NC(=O)C3CC3)c2)c1 [Example 59] | < 100 nM | 100 to 500 nM | 100 to 500 nM | 100 to 500 nM | < 100 nM | < 100 nM | IC50 (HCT-116 cells; [10]): < 100 nM; IC50 (MiaPaca-2 cells; [12]): 100 to 500 nM; IC50 (Porcine Brain Tubulin; [13]): < 3000 nM; IC50 (HPAF-II cells; [15]): 100 to 500 nM; IC50 [1, 17]: < 100 nM; IC50 [2, 19]: < 100 nM
Cc1ccc(NC(=O)c2cncc(C(F)(F)F)c2)cc1-c1cncc(-c2cc(NC(=O)C3CC3)ncn2)c1 [Example 66] | < 100 nM | 500 to 1000 nM | 100 to 500 nM | < 100 nM | < 100 nM | < 100 nM | IC50 (HCT-116 cells; [10]): < 100 nM; IC50 (MiaPaca-2 cells; [12]): 100 to 500 nM; IC50 (Porcine Brain Tubulin; [13]): > 100000 nM; IC50 (HPAF-II cells; [15]): < 100 nM; IC50 [1, 17]: < 100 nM; IC50 [2, 19]: < 100 nM
Cc1ccc(NC(=O)c2ccnc(C(C)(C)F)c2)cc1-c1ccnc(-c2ccnc(NC(=O)C3CC3)c2)c1 [reference compound] | – | – | – | – | – | – | IC50 (HCT-116 cells; [3]): 100 to 500 nM; IC50 (MiaPaca-2 cells; [4]): 1000 to 10000 nM; IC50 (Porcine Brain Tubulin; [5]): > 100000 nM; IC50 (HPAF-II cells; [6]): 500 to 1000 nM; IC50 [1, 7]: < 100 nM; IC50 [2, 8]: < 100 nM
Cc1ccc(NC(=O)c2cc(C(F)(F)F)cnn2)cc1-c1cc(N[C@H](C)CO)nc(-c2ccnc(NC(=O)C3CC3)c2)c1 [Example 45] | < 100 nM | 100 to 500 nM | 100 to 500 nM | < 100 nM | < 100 nM | < 100 nM | IC50 (HCT-116 cells; [10]): < 100 nM; IC50 (MiaPaca-2 cells; [12]): 100 to 500 nM; IC50 (Porcine Brain Tubulin; [13]): 3000 to 20000 nM; IC50 (HPAF-II cells; [15]): < 100 nM; IC50 [1, 17]: < 100 nM; IC50 [2, 19]: < 100 nM
Cc1ccc(NC(=O)c2ccnc(C(C)C)c2)cc1-c1ccnc(-c2ccnc(NC(=O)C3CC3)c2)c1 [reference compound] | – | – | – | – | – | – | IC50 (HCT-116 cells; [3]): 1000 to 10000 nM; IC50 (Porcine Brain Tubulin; [5]): > 100000 nM; IC50 (HPAF-II cells; [6]): 100 to 500 nM; IC50 [1, 7]: < 100 nM; IC50 [2, 8]: < 100 nM
Cc1ccc(NC(=O)c2cnc(C(F)(F)F)cn2)cc1-c1ccnc(-c2ccnc(NC(=O)C3CC3)c2)c1 [Example 56] | 500 to 1000 nM | 1000 to 10000 nM | 500 to 1000 nM | 1000 to 10000 nM | < 100 nM | 100 to 500 nM | –
COCC(=O)Nc1cc(-c2nccc(-c3cc(NC(=O)c4cc(C(F)(F)F)cnn4)ccc3C)n2)ccn1 [Example 10] | 500 to 1000 nM | 1000 to 10000 nM | 1000 to 10000 nM | 500 to 1000 nM | < 100 nM | < 100 nM | –
Cc1ccc(NC(=O)c2cncc(C(F)(F)F)n2)cc1-c1cncc(-c2ccnc(NC(=O)C3CC3)c2)c1 [Example 5] | 1000 to 10000 nM | 1000 to 10000 nM | 1000 to 10000 nM | 1000 to 10000 nM | < 100 nM | < 100 nM | –
Cc1ccc(NC(=O)c2ccc(C(F)(F)F)nn2)cc1-c1cncc(-c2cc(NC(=O)C3CC3)ncn2)c1 [Example 23] | 1000 to 10000 nM | 1000 to 10000 nM | 1000 to 10000 nM | 1000 to 10000 nM | < 100 nM | < 100 nM | –
Cc1cnc(NC(=O)c2cc(C(F)(F)F)cnn2)cc1-c1ccnc(-c2ccnc(NC(=O)C3CC3)c2)c1 [Example 36] | 100 to 500 nM | 1000 to 10000 nM | 1000 to 10000 nM | 1000 to 10000 nM | < 100 nM | < 100 nM | –
Cc1ccc(NC(=O)c2cncc(C(F)(F)F)n2)cc1-c1cncc(-c2cc(NC(=O)C3CC3)ncn2)c1 [Example 61] | < 100 nM | 1000 to 10000 nM | 1000 to 10000 nM | 1000 to 10000 nM | < 100 nM | < 100 nM | –
Cc1ccc(NC(=O)c2cncc(C(C)(F)F)c2)cc1-c1cncc(-c2cc(NC(=O)C3CC3)ncn2)c1 [Example 109] | < 100 nM | 1000 to 10000 nM | 100 to 500 nM | 100 to 500 nM | < 100 nM | < 100 nM | –
Cc1cc(F)c(NC(=O)c2cc(C(F)(F)F)cnn2)cc1-c1ccnc(-c2ccnc(NC(=O)C3CC3)c2)c1 [Example 60] | 100 to 500 nM | 1000 to 10000 nM | 1000 to 10000 nM | 1000 to 10000 nM | < 100 nM | < 100 nM | –
Cc1ccc(NC(=O)c2cc(C(F)(F)F)cnn2)cc1-c1ccnc(-c2ccnc(NC(=O)C3(F)CC3)c2)c1 [Example 4, N-(3-(2′-(1-fluorocyclopropane-1-carboxamido)-[2,4′-bipyridin]-4-yl)-4-methylphenyl)-5-(trifluoromethyl)pyridazine-3-carboxamide] | 100 to 500 nM | 100 to 500 nM | 100 to 500 nM | 100 to 500 nM | < 100 nM | < 100 nM | –
Cc1ccc(NC(=O)c2cc(C(C)(F)F)cnn2)cc1-c1ccnc(-c2cnn(C)c2)c1 [Example 150] | 100 to 500 nM | 500 to 1000 nM | 100 to 500 nM | 100 to 500 nM | < 100 nM | 100 to 500 nM | –
CNCC(=O)Nc1cc(-c2cc(-c3cc(NC(=O)c4cc(C(C)(F)F)cnn4)ccc3C)ccn2)ccn1 [Example 112] | 100 to 500 nM | 100 to 500 nM | 100 to 500 nM | 100 to 500 nM | < 100 nM | < 100 nM | –
Cc1cc(-c2cc(NC(=O)c3cc(C(F)(F)F)cnn3)cnc2C)cc(-c2ccnc(NC(=O)C3CC3)c2)n1 [Example 35] | 1000 to 10000 nM | 1000 to 10000 nM | 1000 to 10000 nM | 1000 to 10000 nM | < 100 nM | < 100 nM | –
Cc1ccc(NC(=O)c2ccc(C(F)(F)F)nc2)cc1-c1ccnc(-c2ccnc(NC(=O)C3CC3)c2)c1 [Example 79] | – | 100 to 500 nM | – | – | < 100 nM | < 100 nM | IC50 (HCT-116 cells; HCT-116 cells, Table 2, read-out: Inhibition of cell proliferation in HCT-116 (IC50 class)): 100 to 500 nM; IC50 (MiaPaca-2 cells; MiaPaca-2 cells, Table 2, read-out: Inhibition of cell proliferation in MiaPaca-2 (IC50 class)): 100 to 500 nM; IC50 (HPAF-II cells; HPAF-II cells, Table 2, read-out: Inhibition of cell proliferation in HPAF-II (IC50 class)): 100 to 500 nM
Cc1ccc(NC(=O)c2cc(C(C)(F)F)cnn2)cc1-c1cc(N[C@H](C)CO)nc(-c2cn[nH]c2)c1 [Example 121] | < 100 nM | < 100 nM | < 100 nM | 100 to 500 nM | < 100 nM | < 100 nM | –
Cc1ccc(NC(=O)c2cc(P(C)(C)=O)cnn2)cc1-c1ccnc(-c2ccnc(NC(=O)C3CC3)c2)c1 [Example 111] | 1000 to 10000 nM | 1000 to 10000 nM | 1000 to 10000 nM | 1000 to 10000 nM | < 100 nM | < 100 nM | –
Cc1ccc(NC(=O)c2cc(C(F)(F)F)cnn2)cc1-c1ccnc(-c2ccnc(N)c2)c1 [Example 2, N-(3-(2′-amino-[2,4′-bipyridin]-4-yl)-4-methylphenyl)-5-(trifluoromethyl)pyridazine-3-carboxamide] | < 100 nM | < 100 nM | < 100 nM | < 100 nM | < 100 nM | < 100 nM | –
Cc1ccc(NC(=O)c2cc(C3CC3)cnn2)cc1-c1ccnc(-c2cnn(C)n2)c1 [Example 141] | 500 to 1000 nM | 500 to 1000 nM | 500 to 1000 nM | 500 to 1000 nM | 100 to 500 nM | 100 to 500 nM | –
